Conditions: Liquid, Capillary tube (Ostwald / Ubbelohde) method

O [water]
viscosity [mPa·s]
Conditions	296.7 K	338.3 K	372.4 K	413.62 K	469.4 K	500.22 K	544.23 K	573.7 K
5000 kPa	0.918	0.431	0.286	0.196	–	–	–	–
10000 kPa	0.917	0.434	0.287	0.197	0.138	0.12	0.0983	0.086
20000 kPa	0.915	0.435	0.288	0.201	0.141	0.123	0.1012	0.0891
40000 kPa	0.914	0.44	0.293	0.205	0.145	0.127	0.106	0.095
